{"source": "PubChem BioAssay AID330", "about": "(DTP/NCI, 2004)", "tested_on": "P388 leukemia ip, CD2F1 mice, survival T/C", "test": "NCI In Vivo Anticancer Drug Screen. Data for tumor model P388 Leukemia (intraperitoneal) in CD2F1 (CDF1) mice", "settings": "endpoint: median survival time, higher = longer survival", "how_it_was_run": "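Mice carrying the transplanted tumor received test compound or vehicle. Survival was recorded in each group, and the value is the treated-group measurement divided by that of the vehicle-treated control group.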", "key": {"[1]": {"settings": "dose: 50.0 mg/kg/injection, schedule: Q01DX005 (ip), vehicle: saline"}, "[2]": {"settings": "dose: 100.0 mg/kg/injection, schedule: Q01DX005 (ip), vehicle: saline"}, "[3]": {"settings": "dose: 200.0 mg/kg/injection, schedule: Q01DX005 (ip), vehicle: saline"}}, "note": "Values joined by “and” are separate entries in the source; they are usually repeats but may differ in a detail not shown here. Equal entries are not always repeated. Toxic doses and inconclusive results are not listed."}
{"smiles": "CN1C2CCC1C(C(=O)O)C(O)C2", "note": "(stereo not given)", "values": [{"measurement": "T/C", "setting": "dose: 100.0 mg/kg/injection, schedule: Q04DX002 (ip), vehicle: saline with Tween-80", "result": "101 % of control"}, {"measurement": "T/C", "setting": "dose: 200.0 mg/kg/injection, schedule: Q04DX002 (ip), vehicle: saline with Tween-80", "result": "96 % of control"}, {"measurement": "T/C", "setting": "dose: 400.0 mg/kg/injection, schedule: Q04DX002 (ip), vehicle: saline with Tween-80", "result": "92 % of control"}]}
{"smiles": "C=C1C(=O)C23C(O)C1CCC2C12CCCC(C)(C)C1C(O)C3(O)OC2", "note": "(stereo not given)", "values": [{"measurement": "T/C", "setting": "dose: 2.5 mg/kg/injection, schedule: Q01DX005 (ip), vehicle: Klucel (hydroxypropylcellulose) (HPC)", "result": "101 % of control"}, {"measurement": "T/C", "setting": "dose: 5.0 mg/kg/injection, schedule: Q01DX005 (ip), vehicle: Klucel (hydroxypropylcellulose) (HPC)", "result": "107 % of control"}, {"measurement": "T/C", "setting": "dose: 10.0 mg/kg/injection, schedule: Q01DX005 (ip), vehicle: Klucel (hydroxypropylcellulose) (HPC)", "result": "108 % of control"}]}
{"smiles": "CCOC(=O)C1CCCCC1NC1CCCCC1C(=O)OCC", "note": "(stereo not given)", "values": [{"measurement": "T/C", "setting": "dose: 34.5 mg/kg/injection, schedule: Q01DX009 (ip), vehicle: saline with Tween-80", "result": "105 % of control"}, {"measurement": "T/C", "setting": "dose: 50.0 mg/kg/injection, schedule: Q01DX009 (ip), vehicle: saline with Tween-80", "result": "120 % of control"}, {"measurement": "T/C", "setting": "dose: 50.0 mg/kg/injection, schedule: Q01DX009 (ip), vehicle: saline", "result": "103 % of control"}, {"measurement": "T/C", "setting": "dose: 100.0 mg/kg/injection, schedule: Q01DX009 (ip), vehicle: saline with Tween-80", "result": "117 % of control"}, {"measurement": "T/C", "setting": "dose: 100.0 mg/kg/injection, schedule: Q01DX009 (ip), vehicle: saline", "result": "112 % of control"}, {"measurement": "T/C", "setting": "dose: 138.0 mg/kg/injection, schedule: Q01DX009 (ip), vehicle: saline with Tween-80", "result": "107 % of control"}, {"measurement": "T/C", "setting": "dose: 200.0 mg/kg/injection, schedule: Q01DX009 (ip), vehicle: saline with Tween-80", "result": "120 % of control"}, {"measurement": "T/C", "setting": "dose: 200.0 mg/kg/injection, schedule: Q01DX009 (ip), vehicle: saline", "result": "108 % of control"}]}
{"smiles": "CN(C)c1ccc(C2=CC(c3ccc(N(C)C)cc3)(c3ccc(C(F)(F)F)cc3)C=C(c3ccc(N(C)C)cc3)S2)cc1", "values": [{"measurement": "T/C", "setting": "dose: 100.0 mg/kg/injection, schedule: Q01DX001 (ip), vehicle: Klucel (hydroxypropylcellulose) (HPC)", "result": "101 % of control"}, {"measurement": "T/C", "setting": "dose: 200.0 mg/kg/injection, schedule: Q01DX001 (ip), vehicle: Klucel (hydroxypropylcellulose) (HPC)", "result": "92 % of control"}]}
{"smiles": "COc1ccc(/C=C/C(=O)c2c(N)n(C)c(=O)n(C)c2=O)cc1", "values": [{"measurement": "T/C", "setting": "dose: 50.0 mg/kg/injection, schedule: Q01DX005 (ip), vehicle: Klucel (hydroxypropylcellulose) (HPC)", "result": "91 % of control"}, {"measurement": "T/C", "setting": "dose: 100.0 mg/kg/injection, schedule: Q01DX005 (ip), vehicle: Klucel (hydroxypropylcellulose) (HPC)", "result": "88 % of control"}]}
{"smiles": "NC(CCC(=O)NC(CS)C(=O)NCC(=O)O)C(=O)O", "note": "(stereo not given)", "values": [{"measurement": "T/C", "setting": "dose: 25.0 mg/kg/injection, schedule: Q01DX005 (ip), vehicle: saline", "result": "102 % of control"}, {"measurement": "T/C", "setting": "[1]", "result": "104 % of control and 108 % of control"}, {"measurement": "T/C", "setting": "[2]", "result": "98 % of control and 94 % of control"}, {"measurement": "T/C", "setting": "[3]", "result": "102 % of control"}, {"measurement": "T/C", "setting": "dose: 400.0 mg/kg/injection, schedule: Q01DX005 (ip), vehicle: saline", "result": "93 % of control"}]}
{"smiles": "O=C1OC(c2cccnc2)OC(c2ccccc2)=C1C(=O)c1ccccc1", "note": "(stereo not given)", "values": [{"measurement": "T/C", "setting": "dose: 60.0 mg/kg/injection, schedule: Q01DX005 (ip), vehicle: Klucel (hydroxypropylcellulose) (HPC)", "result": "107 % of control"}, {"measurement": "T/C", "setting": "dose: 120.0 mg/kg/injection, schedule: Q01DX005 (ip), vehicle: Klucel (hydroxypropylcellulose) (HPC)", "result": "98 % of control"}, {"measurement": "T/C", "setting": "dose: 240.0 mg/kg/injection, schedule: Q01DX005 (ip), vehicle: Klucel (hydroxypropylcellulose) (HPC)", "result": "97 % of control"}]}
{"smiles": "CCSc1nc2ccc(N=Cc3ccccc3O)cc2s1", "values": [{"measurement": "T/C", "setting": "dose: 12.5 mg/kg/injection, schedule: Q01DX009 (ip), vehicle: Klucel (hydroxypropylcellulose) (HPC)", "result": "99 % of control and 88 % of control"}, {"measurement": "T/C", "setting": "dose: 25.0 mg/kg/injection, schedule: Q01DX009 (ip), vehicle: Klucel (hydroxypropylcellulose) (HPC)", "result": "101 % of control and 93 % of control"}, {"measurement": "T/C", "setting": "dose: 100.0 mg/kg/injection, schedule: Q01DX009 (ip), vehicle: Klucel (hydroxypropylcellulose) (HPC)", "result": "106 % of control and 218 % of control and 91 % of control"}]}
{"smiles": "CC(C)CNc1ncnc2c1cnn2C", "values": [{"measurement": "T/C", "setting": "[1]", "result": "94 % of control"}, {"measurement": "T/C", "setting": "[2]", "result": "112 % of control"}, {"measurement": "T/C", "setting": "[3]", "result": "115 % of control"}]}
{"smiles": "CCCCOC(=O)C(C)OC(=O)Nc1cccc(C)c1", "note": "(stereo not given)", "values": [{"measurement": "T/C", "setting": "dose: 100.0 mg/kg/injection, schedule: Q04DX002 (ip), vehicle: Klucel (hydroxypropylcellulose) (HPC)", "result": "105 % of control"}, {"measurement": "T/C", "setting": "dose: 200.0 mg/kg/injection, schedule: Q04DX002 (ip), vehicle: Klucel (hydroxypropylcellulose) (HPC)", "result": "103 % of control"}, {"measurement": "T/C", "setting": "dose: 400.0 mg/kg/injection, schedule: Q04DX002 (ip), vehicle: Klucel (hydroxypropylcellulose) (HPC)", "result": "100 % of control"}]}
